In patent US10385011B2, “Benzoic acid amide compound” (AMOREPACIFIC CORPORATION, priority 2015, dated 2019):

The molecules below were run on Mouse-derived B16F10 melanoma cells (assay: Effect of reducing melanin production in melanocytes (Dooley's method)). Conditions: B16-F10, 120 h, medium with compound replaced for three consecutive days, melanin extracted after 5 days, absorbance at 405 nm, read-out: IC50, concentration required to inhibit melanin production in melanocytes to half.
Assay type: cell-based
Description: The effect of inhibiting melanin production of the benzoic acid amide derivative compounds prepared in Examples in melanocytes was measured according to the Dooley's method. Mouse-derived B16F10 melanoma cells acquired from the Korean Cell Line Bank were used as cell lines. DMEM (Cat No. 11995), FBS (Cat No. 16000-044), and antibiotic-antifungal agents (Cat No. 15240-062) necessary for cell culturing were purchased from Invitrogen (GIBCO). The cell lines were cultured under the condition of 37° C. and 5% CO2. The cultured B16F10 cells were detached using 0.05% trypsin-EDTA and inoculated onto a 48-well plate with the same cell number (1×10^4 cells/well). From the next day, the culture medium was replaced with one containing 10 ppm of each compound of Examples for three consecutive days. […] After 5 days, melanin was melted and extracted from the cells by treating with 1 N NaOH at 60° C. for 2 hours, which was quantitated by measuring absorbance at 405 nm. The concentrations (IC50) of Examples required to inhibit melanin production in melanocytes to half were calculated and are given in the following Table 1.

In order of falling IC50:
1. COc1cc(OC)c(C(C)(C)C)cc1C(=O)NCc1ccc(O)cc1O [Example 1, 5-tert-butyl-N-(2,4-dihydroxy-benzyl)-2,4-dimethoxy-benzoic Acid Amide]  2300 nM
2. COc1cc(OC)c(C2CCCCC2)cc1C(=O)NCc1ccc(O)cc1O [Example 12, 5-cyclohexyl-N-(2,4-dihydroxy-benzyl)-2,4-dimethoxy-benzoic Acid Amide]  2100 nM
3. COc1cc(OC)c(-c2cc(C)cc(C)c2)cc1C(=O)NCc1ccc(O)cc1O [Example 8, N-(2,4-dihydroxy-benzyl)-2,4-dimethoxy-5-(3,5-dimethyl-phenyl) Benzoic Acid Amide]  1500 nM
4. COc1cc(OC)c(-c2cccc([N+](=O)[O-])c2)cc1C(=O)NCc1ccc(O)cc1O [Example 10, N-(2,4-dihydroxy-benzyl)-2,4-dimethoxy-5-(3-nitro-phenyl) Benzoic Acid Amide]  1300 nM
5. COc1cc(OC)c(C2=CCCCC2)cc1C(=O)NCc1ccc(O)cc1O [Example 11, 5-cyclohexene-1-yl-N-(2,4-dihydroxy-benzyl)-2,4-dimethoxy-benzoic Acid Amide]  900 nM
6. CCCCc1ccc(O)cc1O [Rucinol, reference compound]  800 nM
7. COc1ccc(-c2cc(C(=O)NCc3ccc(O)cc3O)c(OC)cc2OC)cc1 [Example 5, N-(2,4-dihydroxy-benzyl)-2,4-dimethoxy-5-(4-methoxy-phenyl) Benzoic Acid Amide]  700 nM
8. COc1cc(OC)c(-c2ccc(F)cc2)cc1C(=O)NCc1ccc(O)cc1O [Example 6, N-(2,4-dihydroxy-benzyl)-2,4-dimethoxy-5-(4-fluoro-phenyl)-benzoic Acid Amide]  700 nM
9. COc1cc(OC)c(-c2ccc3c(c2)OCO3)cc1C(=O)NCc1ccc(O)cc1O [Example 7, 5-benzo[1,3]dioxol-5-yl-N-(2,4-dihydroxy-benzyl)-2,4-dimethoxy-benzoic Acid Amide]  700 nM
10. COc1cc(OC)c(-c2ccc(F)c(F)c2)cc1C(=O)NCc1ccc(O)cc1O [Example 9, N-(2,4-dihydroxy-benzyl)-2,4-dimethoxy-5-(3,4-difluoro-phenyl) Benzoic Acid Amide]  600 nM
